The values below come from patent publication US5563037A, “Homogeneous method for assay of double-stranded nucleic acids using fluorescent dyes and kit useful therein” (Johnson & Johnson Clinical Diagnostics, Inc., priority 1995, dated 1996).

Where “and” joins values, the source holds several entries; their conditions need not be identical. Equal entries are not always repeated.

The target of experiment [1] is double-stranded nucleic acids. In words: Binding constant (Kb) of fluorescent dye with double-stranded nucleic acids. To be noted: Kp from Molecular Probes catalog divided by 55. The text has this:
The fluorescent dyes useful herein are generally defined as unsymmetrical cyanine dyes having a binding constant (Kb) within the range of from about 1×104 to about 5×105 (molar^-1). As used to define Kb, "about" refers to a variance of 10%. The dyes are also water-soluble or water-dispersible so they can bind to the nucleic acids in the aqueous reaction mixture. Depending upon the anions used, the dyes may be dissolved in a water-miscible solvent.
Particularly useful fluorescent dyes are commercially available from Molecular Probes, Inc. having the trade names and Kp values listed in Table I below. However, this invention is not to be construed as limited to the particular Molecular Probes, Inc. dyes listed therein since these are but preferred dyes. The cations of these preferred dyes are also identified below by chemical structure. The compounds can include any suitable divalent anion, or two monovalent anions. Iodide is preferred. [drawing 3]
*The Kb values in the table were calculated by dividing the partitio
coefficient (Kp) reported in the Molecular Probes, Inc. catalog, page 224
by 55, the molarity of water.

Experiment [2] deals with HIV-I DNA. In words: Example 3: fluorescence after amplification with dye; usefulness / PCR inhibition. Type of experiment: biochemical. To be noted: for Fluorescent Signal: amplified samples mixed with YOYO-1 (0.1 μmolar); for usefulness of dye / inhibition of PCR: dye in amplification. The protocol: The primers used in Example 3 had the following sequences which are complementary to the gag region of HIV-I DNA: Amplification experiments like those of Example 2 were also carried out to evaluate the usefulness of several other conventional fluorescent dye stains. In these assays, primers identified above as SEQ ID NO:3 and SEQ ID NO:4 were used, as well as the probe identified as SEQ ID NO:6. […] Fluorescence was determined as described in Example 2 except that all amplified samples were mixed with a solution of YOYO-1 (0.1 μmolar) to provide a common minimum threshold of signal.

The test system of experiment [3] is HIV-I DNA. Nature of the experiment: Example 2: ethidium bromide stained electrophoretic gels of amplification products. The class given is biochemical. On the procedure: The method of this invention was compared to an amplification and detection method outside the scope of this invention, which was carried out using YOYO-1 (1 μmolar final concentration), a tetravalent fluorescent dye, in the buffered solution described above. This dye has the following structure: [drawing 4] The PCR reaction mixture of Example 1 (except the DNA polymerase) was made to a volume of 5472 μl. The resulting mixture was aliquoted into tubes A, B and C (1824 μl each) representing Samples A, B and C, respectively. The sample in Tube A was diluted with buffer (220 μl) and subjected to amplification without any fluorescence dye present. The dye was added at the end of amplification for quantitative detection of the resulting products. In addition to the PCR reagents, the sample in Tube B contained YOYO-1 fluorescent dye (0.1 μmolar) which had been added prior to amplification (220 μl of a 10 μmolar solution). The sample in Tube C also contained YO-[…] fluorescent dye (0.1 μmolar) which had been added prior to amplification (220 μl of a 10 μmolar solution). The DNA polymerase (88 μl) and target HIV-I DNA target nucleic acid (220 μl) were then added to each tube, and the contents of the each of the three tubes were used to fill the PCR reagent compartment of eight pouches. Amplification was carried out using the same procedures as in Example 1. […] follows: The results of amplification were detected in three ways: (1) color dye scores visually evaluated as 0 (no signal) to 10 (highest signal density), (2) ethidium bromide stained electrophoretic gels, and (3) fluorescence measured on a commercially available Perkin Elmer fluorimeter. Electrophoresis was carried out using commercially available NuSieve 1.5%/Seakem Agarose 1% gels (modified to 2.5% agarose) and ethidium bromide stain. The samples were applied to the gels in conventional TBE buffer (4 μl/100 μl). Three replicate assays of each sample (A, B and C) were carried out using each detection means. The average result for each detection means was as follows: […]

Experiment [4] deals with HIV-I DNA. In words: Example 2: leuco dye color scores of amplified target in pouches. The class given is biochemical. The following applies: dye added prior to amplification. The protocol: (§1) The method of this invention was compared to an amplification and detection method outside the scope of this invention, which was carried out using YOYO-1 (1 μmolar final concentration), a tetravalent fluorescent dye, in the buffered solution described above. This dye has the following structure: [drawing 4]
Amplification was carried out using self-contained chemical pouches such as those described in U.S. Pat. No. 5,229,297 (Schnipelsky et al). Those pouches contained the capture probe SEQ ID NO:5 attached to particles which were immobilized in a detection channel where reactions can take place.
The pouches were loaded with reagents, as follows:
(§2) The PCR reaction mixture of Example 1 (except the DNA polymerase) was made to a volume of 5472 μl. The resulting mixture was aliquoted into tubes A, B and C (1824 μl each) representing Samples A, B and C, respectively.
(§3) The sample in Tube A was diluted with buffer (220 μl) and subjected to amplification without any fluorescence dye present. The dye was added at the end of amplification for quantitative detection of the resulting products.
(§4) In addition to the PCR reagents, the sample in Tube B contained YOYO-1 fluorescent dye (0.1 μmolar) which had been added prior to amplification (220 μl of a 10 μmolar solution).
(§5) The sample in Tube C also contained YO-PRO-1 fluorescent dye (0.1 μmolar) which had been added prior to amplification (220 μl of a 10 μmolar solution).
(§6) The DNA polymerase (88 μl) and target HIV-I DNA target nucleic acid (220 μl) were then added to each tube, and the contents of the each of the three tubes were used to fill the PCR reagent compartment of eight pouches.
Amplification was carried out using the same procedures as in Example 1. The PCR protocol was similarly carried out for 40 cycles using a thermal cycler as follows:
1) Preheat to denature at 95° C. for 60 seconds,
priming and extension for 40 seconds at 63.5° C., and denaturation for 10 seconds at 95° C., and
3) final denaturation for 60 seconds at 95° C.
(§7) The results of amplification were detected in three ways: (1) color dye scores visually evaluated as 0 (no signal) to 10 (highest signal density), (2) ethidium bromide stained electrophoretic gels, and (3) fluorescence measured on a commercially available Perkin Elmer fluorimeter.
The noted color scores were obtained by using immobilized capture probes in the pouches with which the amplified target hybridized during incubation for 5 minutes at 42° C. The immobilized target was contacted with the conjugate solution (identified above) for 1 minute at 30° C., followed by the wash solution for 1 minute at 55° C. The leuco dye solution was then added at 30° C. and the resulting color signal was observed after two minutes incubation at 30° C. […]

Experiment [5] relates to HIV-I DNA. In words: Example 2: fluorescence of amplification products. The class given is biochemical. The protocol:
as §1, §2, §3, §4, §5, §6
Amplification was carried out using the same procedures as in Example 1. […]
as §7
Three replicate assays of each sample (A, B and C) were carried out using each detection means. The average result for each detection means was as follows:
Fluorescent signal was generated using a Perkin-Elmer LS-5B fluorimeter, at the following wavelengths for both dyes:
Each amplification product mixture was diluted 100× into a solution of each dye (1 μmolar final concentration). Background signals were obtained from a mixture of amplification reagent mixture and each dye.

Where [6] appears, read: 60 cycles, in the presence of YOYO-1.

As for `C[n+]1c(C=C2C=CN(CCC[N+](C)(C)C)C=C2)oc2ccccc21` [A], binding in experiment [1] was put at a Kd of 27.8 µM.

As for `C[n+]1c(C=C2C=CN(CCC[N+](C)(C)C)C=C2)sc2ccccc21` [Compound C], in experiment [2], the “Fluorescent Signal” value was 19.6 and the “usefulness of dye / inhibition of PCR” value was “useful”. This molecule gave a Kd in experiment [1] of 17.2 µM.

Turning to `C[n+]1c(C=C2C=CN(CCC[N+](C)(C)C)c3ccccc32)sc2ccccc21` [Compound G], in experiment [2], the “Fluorescent Signal” value is on record as 8.32 and the “usefulness of dye / inhibition of PCR” value is recorded as “useful”. In addition, binding in experiment [1] was characterised by a dissociation constant (Kd) of 2.78 µM.

`C[n+]1c(C=CC=C2C=CN(CCC[N+](C)(C)C)c3ccccc32)sc2ccccc21` [Compound H]: in experiment [2], the “Fluorescent Signal” value is reported as 15.5 and the “usefulness of dye / inhibition of PCR” value is “useful”. For the same molecule, binding in experiment [1] was put at a Kd of 9.09 µM.

On to `C[n+]1c(C=CC=C2C=CN(CCC[N+](C)(C)C)C=C2)sc2ccccc21` [D], for which binding in experiment [1] was characterised by a dissociation constant (Kd) of 11.5 µM.

`C[n+]1c(C=CC=C2C=CN(CCC[N+](C)(C)C)c3ccccc32)oc2ccccc21` [F]: in experiment [1], binding was put at a Kd of 16.7 µM.

As to `CN1/C(=C/c2cc[n+](CCC[N+](C)(C)CCC[N+](C)(C)CCC[n+]3ccc(/C=C4\Sc5ccccc5N4C)c4ccccc43)c3ccccc23)Sc2ccccc21.[I-].[I-].[I-].[I-]` [TOTO-1, reference compound], in experiment [2], the “Fluorescent Signal” value is reported as 2.70.

Regarding `C[n+]1c(C=C2C=CN(CCC[N+](C)(C)CCC[N+](C)(C)CCCN3C=CC(=Cc4oc5ccccc5[n+]4C)c4ccccc43)c3ccccc32)oc2ccccc21` [YOYO-1], in experiment [3] (setting [6]), the “difference with modified protocol, by gel electrophoresis” value is “not by gel electrophoresis”. Moreover, in experiment [3] (dye added prior to amplification), the “effect of dye on amplification (gel)” value was “stopped amplification”. For the same molecule, the “Positive/negative Gel Bands” value in experiment [3] (dye added prior to amplification, 40 cycles) is reported as 5 Negatives out of 5 bands. The “effect of dye on amplification (color scores)” value in experiment [4] is on record as “inhibited amplification”. In addition, the “Average Color Score” value in experiment [4] (leuco dye, 0 (no signal) to 10 (highest signal density), 40 cycles) came out at 0. Moreover, in experiment [2], the “Fluorescent Signal” value came out at 2.18 and the “usefulness of dye / inhibition of PCR” value was “not useful because they generally inhibited PCR”. Moreover, the “difference with modified protocol, by fluorescence” value in experiment [5] (setting [6]) was “small and was detectable by fluorescence”. For the same molecule, the “Fluorescence, dye added after amplification (Sample A)” value in experiment [5] (Sample A, dye added after amplification, replicates, 491/509 nm) is 7.1 Fluorescent Units and 6.6 Fluorescent Units and 6.0 Fluorescent Units (2×). The Background fluorescence in experiment [5] (amplification reagent mixture and dye, excitation 491 nm, emission 509 nm) was determined as 0.09 Fluorescent Units. Besides, in experiment [5] (comparison of the two dyes (fluorescence)), the “effect of dye on amplification / overall signal” value is listed as “considerably inhibits the amplification process”. Besides, the “Fluorescence, dye present during amplification (Samples B, C)” value in experiment [5] (dye added prior to amplification, replicates, 491/509 nm) is 1.5 Fluorescent Units (3×) and 1.4 Fluorescent Units (2×). In addition, the nucleic acid staining result in experiment [5] (in words) is “high nucleic acid staining”.

As for TOTO-3 [reference compound], the “Fluorescent signal and its repeatability (in words)” value in experiment [2] (Table II footnote) was “high fluorescent signal in one experiment”. Also, the “Fluorescent Signal” value in experiment [2] was found to be 8.45.

As a reminder, the Kd is the free concentration of one partner at which half of the binding sites on the other are occupied at equilibrium, for simple one-to-one binding. Higher therefore signals lower affinity.
